Results on 4 compounds are retold here after patent publication US4067982A, “Aryl-substituted piperazinyl-alkylamino-uracils, -uracil ethers and -uracil thioethers as therapeutics” (priority 1976, dated 1978).

For data set [1], the system named is carotid sinus relaxation reflex of the narcotized cat. The data set is described as follows: Inhibition of the carotid sinus reflex, narcotized cat. It is filed as in vivo. Particulars: Felis catus, iv; for ED30: 30% inhibition; for ED50: 50% inhibition.
The test system of data set [2] is mouse. Nature of the data set: Inhibition of the motility in the tread wheel, mouse. It is filed as in vivo. Particulars: mouse, 5 mg/kg d-amphetamine-sulfate, 180 minutes.
The test system of data set [3] is mouse. The data set is described as follows: SD50, sedation symptoms, mouse. It is filed as in vivo. As to conditions: mouse, oral; dose at which 50% show inhibition of spontaneous motility, sedation, muscle relaxation, loss of gripping; read-out: SD50 (the source's name).
Text: b = Dose, at which at an average 50% of the mice show the following symptoms: inhibition of the spontaneous motility, sadation, muscle relaxation, loss of gripping and holding ability on a horizontal wire net.
Data set [4] deals with blood pressure increasing effect of adrenaline. The data set is described as follows: Inhibition of the pressor effect of adrenaline, despinalized rat. It is filed as in vivo. Particulars: iv, 0.001 mg/kg i.v. adrenaline, read-out: 50% inhibition of the press. effect after i.v. administration of adrenaline with.
Data set [5] relates to systolic and diastolic blood pressure. Nature of the data set: Clinical test, blood pressure in patients. It is filed as in vivo, human. The method, then:
(§1) Clinical tests were conducted with the 1,3-dimethyl-4-(γ-[4(o-methoxyphenyl)-piperazinyl-(1)]-propylamino)- uracil on two female and three male patients, with doses of 10, 20, 40 and 60 mg orally administered.
Attached Diagrams 1 and 2 show the changes of the blood pressure under the effect of various doses of 1,3-dimethyl-4-(γ-[4-(o-methoxyphenyl)-piperazinyl-(1)]-propylamino)-uracil. […] Diagram 2shows the changes of the diastolic blood pressure with the same doses of the uracil compound at an average starting diastolic blood pressure (RRd) of 95.3 mm Hg plotted against the dose of the uracil compound.

Data set [6] concerns mouse. The data set is described as follows: Analgesic effect, thermal stimulation of the tail of the mouse. As to conditions: oral, 25% retardation, read-out: Retardation of the defense reaction upon thermal stimulation of the tail of the mouse by 25%. It is filed as in vivo. An excerpt: The analgesic effect was thereby determined as the delay in the reaction upon thermal stimulation of the tail of the mouse.

Data set [7] concerns blood pressure increasing effect of noradrenaline. The data set is described as follows: Inhibition of the pressor effect of noradrenaline, despinalized rat. It is filed as in vivo. Particulars: iv, 0.001 mg/kg i.v. noradrenaline, read-out: 50% inhibition of the press. effect after i.v. administration of noradrenaline with.
The subject of data set [8] is mouse. Nature of the data set: Prolongation of sleep induced by hexobarbital, mouse. It is filed as in vivo. Particulars: ip; mouse, 15 mg/kg i.p.; 75 mg/kg hexobarbital; vs controls; read-out: % prolongation of sleep induced by hexobarbital by 15 mg/kg i.p.
Experimental: d = Percent prolongation of the duration of sleep of mice, which were administered 75 mg/kg hexobarbital, compared with the sleep duration of controls.
Data set [9] deals with blood pressure of the narcotized rat. Nature of the data set: Lowering of the blood pressure, narcotized rat. Further details: unit not given here. It is filed as in vivo. As to conditions: 30% lowering.
Another data set is described as follows: Solubility. It is filed as physicochemical.
Data set [10] relates to mouse. Nature of the data set: PD50, rotating rod, mouse. It is filed as in vivo. Particulars: ip; mouse, i.p.; dose at which an average of 50% of the mice fall from a rotating rod; read-out: PD50. From the text:
The centrally inhibiting effect of the piperazinyl uracils of the invention in the mouse are apparent from Table IV. […] The selective action of the compounds of the invention on the central blood pressure mechanism can be used advantageously in human therapy in the treatment of hypertonic diseases.
a = Dose, at which an average of 50% of the mice fall from a rotating rod.

The next data set in a line: in vivo. Particulars: mouse.
The next data set concerns patients. The data set is described as follows: Clinical test, compatibility and sensory functions in patients. It is filed as in vivo, human. As to conditions: two female and three male patients; 10, 20, 40 and 60 mg oral. The method, then:
as §1

For data set [11], the system named is blood pressure of the narcotized cat. Nature of the data set: Lowering of the blood pressure, narcotized cat. It is filed as in vivo. Particulars: Felis catus, iv; for ED30: 30% lowering; for ED50: 50% lowering.
Another data set in a line: Hygroscopicity. Particulars: solid product. It is filed as physicochemical.
Data set [12] deals with blood pressure, circulatory system and central nervous system. Particulars: recognized; cited from earlier work.
The subject of data set [13] is histamine spasm of the isolated small intestine of the guinea pig. The data set is described as follows: Antihistamine effect, histamine spasm of isolated small intestine.

Broadly, the LD50 is the dose expected to kill half of the subjects tested. Turning to `COc1ccccc1N1CCN(CCCNc2cc(=O)n(C)c(=O)n2C)CC1` [Example 4, 1,3-Dimethyl-4-(γ-[4-(o-methoxyphenyl)piperazinyl-(1)]-propylamino)-uracil], the ED30 turned out to be 0.03 mg/kg in [1] and 0.14 mg/kg in data set [11]. Besides, the ED50 came out at 0.16 mg/kg in data set [1]; 100 mg/kg with mouse [3]; 0.36 mg/kg in data set [4]; 1.9 mg/kg in data set [7]; 52 mg/kg in the data set with mouse [10]; 0.65 mg/kg in data set [11]. Besides, the inhibition in vivo at 25 mg/kg in the data set on mouse [2] (ip, 3 h, 25 mg/kg i.p., read-out: % Inhibition of the motility in the tread wheel by 25 mg/kg i.p.) was 36%. Moreover, in [5] (doses 0 to 60 mg, average starting RRs 171.9 mm Hg, RRd 95.3 mm Hg), the “dose response of blood pressure lowering (Diagrams 1 and 2)” value was “the blood pressure is progressively lowered in response to an increasing dose of the uracil compound”. Further, the “difference in the effect of a dose of 20 mg and a dose of 40 mg” value in [5] (patients, 20 mg vs 40 mg) is “statistically confirmed”. In addition, the “lowering of the systolic and diastolic blood pressure” value in data set [5] (two female and three male patients, 10, 20, 40 and 60 mg oral) is “statistically significant lowering of the systolic and diastolic blood pressure”. Moreover, the ED25 in the data set with mouse [6] is 2.4 mg/kg. Also, the change in vivo at 15 mg/kg in the data set on mouse [8] worked out at 71%. The “lowering of the blood pressure by 30% by” value in data set [9] came to 0.71. The “solubility in aqueous acetone” value in the data set “Solubility” is reported as “readily soluble in aqueous acetone”. For the same compound, the LD50 in “in vivo” came to 400 mg/kg. Moreover, in the data set with patients, the compatibility entry is listed as “excellent compatibility”. Further, the “effect on perception and other sensory functions” value in the data set with patients was “no adverse effect on perception and other sensory functions”.
As to `COc1ccccc1N1CCN(CCCNc2c(N=O)c(=O)n(C)c(=O)n2C)CC1` [Example 19, 1,3-Dimethyl-4-(γ-[4-(o-methoxyphenyl)-piperazinyl-(1)]-propylamino)-5-nitroso-uracil], the hygroscopicity entry in “Hygroscopicity” is “hygroscopic”.
For `Cc1ccc(N(CC2=NCCN2)c2cccc(O)c2)cc1` [Phentolamine, 2-[N'-p-tolyl-N'-(m-hydroxyphenyl)-aminomethyl]-2-imidiozoline, reference compound], the ED30 in data set [1] and in data set [11] was 0.1 mg/kg throughout. The ED50 turned out to be 0.5 mg/kg in data set [1], 0.047 mg/kg in [4], 0.18 mg/kg in data set [7] and 0.7 mg/kg in [11]. Also, the “lowering of the blood pressure by 30% by” value in data set [9] is 0.63. The mechanism of phentolamine result in data set [12] is “specifically inhibiting the stimulating effect of adrenaline and noradrenaline, typical alpha-blocking agent”.
With `Cc1ccccc1N1CCN(CCCNc2cc(=O)n(C)c(=O)n2C)CC1` [Example 12, 1,3-Dimethyl-4-(γ-[4-(o-tolyl)-piperazinyl(1)]-propylamino)-uracil], the “% Inhibition of the motility in the tread wheel by 12 mg/kg i.p.” value in the data set with mouse [2] (12 mg/kg i.p.) worked out at 42%. The ED50 with mouse [3] was determined as 87 mg/kg; in data set [4], 0.45 mg/kg; in data set [7], 2.5 mg/kg; in the data set with mouse [10], 26 mg/kg; in data set [11] it was 2.4 mg/kg. Moreover, the ED25 in the data set with mouse [6] is 6.5 mg/kg. The change in vivo at 15 mg/kg in the data set with mouse [8] was 49%. Besides, in data set [9], the “lowering of the blood pressure by 30% by” value was 1.0. Also, the “50% inhibition of the histamine spasm of the isolated small intestine of the guinea pig” value in data set [13] is 3e-08 g/mL. The compound also registered an LD50 in “in vivo” of 70 mg/kg. This compound displayed an ED30 in data set [11] of 0.41 mg/kg.
